Tests used:
Type in all cases: biochemical
Jak2 (a.a. 828-1132) = Jak2 (a.a. 828-1132) (Homo sapiens (Human), UniProt O60674); test: In vitro JAK kinase assay (HTRF, phosphorylation of a biotinylated peptide), JAK2; settings: measured at 1 mM ATP
In short: (§1)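 N-terminal His-tagged catalytic domains, baculovirus-expressed in insect cells, phosphorylated a biotinylated peptide for 1 hr at room temperature. EDTA stop was followed by SA-APC and Eu-Py20 antibody for 40 minutes, with phosphopeptide read by HTRF.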

[1] = biological target: human JAK1 (a.a. 837-1142); test: In vitro JAK kinase assay (HTRF, phosphorylation of a biotinylated peptide), JAK1; settings: ratio of JAK2 IC50 to JAK1 IC50, measured at 1 mM ATP
In short: as §1

[2] = biological target: human JAK1 (a.a. 837-1142) (Homo sapiens, UniProt P23458); test: as above; settings: measured at 1 mM ATP
In short: as §1

Jak2 (a.a. 828-1132), sequence (O60674 828-1132): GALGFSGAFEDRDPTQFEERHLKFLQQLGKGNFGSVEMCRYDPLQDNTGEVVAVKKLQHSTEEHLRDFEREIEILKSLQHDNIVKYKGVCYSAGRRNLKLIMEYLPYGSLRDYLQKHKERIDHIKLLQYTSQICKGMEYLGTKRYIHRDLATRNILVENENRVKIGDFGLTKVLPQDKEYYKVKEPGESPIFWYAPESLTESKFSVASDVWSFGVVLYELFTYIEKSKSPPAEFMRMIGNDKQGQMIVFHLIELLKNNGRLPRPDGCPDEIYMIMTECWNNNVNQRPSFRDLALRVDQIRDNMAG

IC50 (Jak2 (a.a. 828-1132)) [nM] | IC50 Ratio JAK2/JAK1 [1] | IC50 [2] [nM] | Structure (SMILES)
10 to 50 | 7.2 | 5 to 20 | N#CCC1(n2cc(-c3ncnc4[nH]ccc34)cn2)CN(C2CCN(C(=O)c3cccc(C#N)c3)CC2)C1 [Example 11, 3-[(4-{3-(cyanomethyl)-3-[4-(7H-pyrrolo[2,3-d]pyrimidin-4-yl)-1H-pyrazol-1-yl]azetidin-1-yl}piperidin-1-yl)carbonyl]benzonitrile]
10 to 50 | 1.1 | 20 to 30 | N#CCC1(n2cc(-c3ncnc4[nH]ccc34)cn2)CN(C2CCN(C(=O)Cc3ccccc3)CC2)C1 [Example 109, {1-[1-(phenylacetyl)piperidin-4-yl]-3-[4-(7H-pyrrolo[2,3-d]pyrimidin-4-yl)-1H-pyrazol-1-yl]azetidin-3-yl}acetonitrile]
10 to 50 | 7.1 | ≤ 5 | N#CCC1(n2cc(-c3ncnc4[nH]ccc34)cn2)CN(C2CCN(C(=O)c3ccc(-c4ccc5nccn5c4)c(F)c3)CC2)C1 [Example 135, {1-[1-(3-fluoro-4-imidazo[1,2-a]pyridin-6-ylbenzoyl)piperidin-4-yl]-3-[4-(7H-pyrrolo[2,3-d]pyrimidin-4-yl)-1H-pyrazol-1-yl]azetidin-3-yl}acetonitrile]
10 to 50 | 4.7 | 5 to 20 | N#CCC1(n2cc(-c3c(F)cnc4[nH]ccc34)cn2)CN(C2CCN(C(=O)c3ccc(F)c(C#N)c3)CC2)C1 [Example 318, 5-[(4-{3-(cyanomethyl)-3-[4-(5-fluoro-1H-pyrrolo[2,3-b]pyridin-4-yl)-1H-pyrazol-1-yl]azetidin-1-yl}piperidin-1-yl)carbonyl]-2-fluorobenzonitrile]
10 to 50 | 6.3 | ≤ 5 | N#CCC1(n2cc(-c3ncnc4[nH]ccc34)cn2)CN(C2CCN(C(=O)c3ccc(-c4ccc(C#N)cc4)cc3)CC2)C1 [Example 126, 4′-[(4-{3-(cyanomethyl)-3-[4-(7H-pyrrolo[2,3-d]pyrimidin-4-yl)-1H-pyrazol-1-yl]azetidin-1-yl}piperidin-1-yl)carbonyl]biphenyl-4-carbonitrile]
≤ 10 | 8.5 | ≤ 5 | N#CCC1(n2cc(-c3ncnc4[nH]ccc34)cn2)CN(C2CCN(C(=O)c3cc(F)cc(Cl)c3)CC2)C1 [Example 28, {1-[1-(3-chloro-5-fluorobenzoyl)piperidin-4-yl]-3-[4-(7H-pyrrolo[2,3-d]pyrimidin-4-yl)-1H-pyrazol-1-yl]azetidin-3-yl}acetonitrile]
≤ 10 | 4.8 | ≤ 5 | COc1cc(F)ccc1C(=O)N1CCC(N2CC(CC#N)(n3cc(-c4ncnc5[nH]ccc45)cn3)C2)CC1 [Example 40, {1-[1-(4-fluoro-2-methoxybenzoyl)piperidin-4-yl]-3-[4-(7H-pyrrolo[2,3-d]pyrimidin-4-yl)-1H-pyrazol-1-yl]azetidin-3-yl}acetonitrile]
≤ 10 | 6.6 | ≤ 5 | N#CCC1(n2cc(-c3ncnc4[nH]ccc34)cn2)CN(C2CCN(C(=O)c3cc(Cl)cc(Cl)c3)CC2)C1 [Example 24, {1-[1-(3,5-dichlorobenzoyl)piperidin-4-yl]-3-[4-(7H-pyrrolo[2,3-d]pyrimidin-4-yl)-1H-pyrazol-1-yl]azetidin-3-yl}acetonitrile]
10 to 50 | 4.3 | 5 to 20 | N#CCC1(n2cc(-c3ncnc4[nH]ccc34)cn2)CN(C2CCN(C(=O)c3ccc(-c4ccc(F)c(F)c4)c(F)c3)CC2)C1 [Example 127, (3-[4-(7H-pyrrolo[2,3-d]pyrimidin-4-yl)-1H-pyrazol-1-yl]-1-{1-[(2,3′,4′-trifluorobiphenyl-4-yl)carbonyl]piperidin-4-yl}azetidin-3-yl)acetonitrile]
50 to 100 | 4.4 | 20 to 30 | N#CCC1(n2cc(-c3ncnc4[nH]ccc34)cn2)CN(C2CCN(C(=O)c3sc(C(F)(F)F)cc3O)CC2)C1 [Example 71, {1-{1-[3-hydroxy-5-(trifluoromethyl)-2-thienylcarbonyl]piperidin-4-yl}-3-[4-(7H-pyrrolo[2,3-d]pyrimidin-4-yl)-1H-pyrazol-1-yl]azetidin-3-yl}acetonitrile]
≤ 10 | 4.0 | ≤ 5 | N#CCC1(n2ccc(-c3ncnc4[nH]ccc34)c2)CN(C2CCN(C(=O)c3cccc(F)c3F)CC2)C1 [Example 276, {1-[1-(2,3-difluorobenzoyl)piperidin-4-yl]-3-[3-(7H-pyrrolo[2,3-d]pyrimidin-4-yl)-1H-pyrrol-1-yl]azetidin-3-yl}acetonitrile]
10 to 50 | 13.1 | ≤ 5 | N#CCC1(n2ccc(-c3ncnc4[nH]ccc34)c2)CN(C2CCN(C(=O)Nc3ccc(F)cc3F)CC2)C1 [Example 286, 4-{3-(cyanomethyl)-3-[3-(7H-pyrrolo[2,3-d]pyrimidin-4-yl)-1H-pyrrol-1-yl]azetidin-1-yl}-N-(2,4-difluorophenyl)piperidine-1-carboxamide]
≤ 10 | 1.5 | ≤ 5 | N#CCC1(n2cc(-c3ncnc4[nH]ccc34)cn2)CN(C2CCN(C(=O)c3cc4ccccc4s3)CC2)C1 [Example 90, {1-[1-(1-benzothien-2-ylcarbonyl)piperidin-4-yl]-3-[4-(7H-pyrrolo[2,3-d]pyrimidin-4-yl)-1H-pyrazol-1-yl]azetidin-3-yl}acetonitrile]
50 to 100 | 3.2 | 20 to 30 | N#CCC1(n2cc(-c3ncnc4[nH]ccc34)cn2)CN(C2CCN(C(=O)Nc3nc(-c4ccc(Cl)cc4)cs3)CC2)C1 [Example 195, N-[4-(4-chlorophenyl)-1,3-thiazol-2-yl]-4-{3-(cyanomethyl)-3-[4-(7H-pyrrolo[2,3-d]pyrimidin-4-yl)-1H-pyrazol-1-yl]azetidin-1-yl}piperidine-1-carboxamide]
10 to 50 | 21.5 | ≤ 5 | N#CCC1(n2cc(-c3ncnc4[nH]ccc34)cn2)CN(C2CCN(C(=O)c3ccc(-c4ccc(C#N)cc4)c(F)c3)CC2)C1 [Example 118, 4′-[(4-{3-(cyanomethyl)-3-[4-(7H-pyrrolo[2,3-d]pyrimidin-4-yl)-1H-pyrazol-1-yl]azetidin-1-yl}piperidin-1-yl)carbonyl]-2′-fluorobiphenyl-4-carbonitrile]
10 to 50 | 9.7 | ≤ 5 | N#CCC1(n2cc(-c3ncnc4[nH]ccc34)cn2)CN(C2CCN(C(=O)OCC3CCC3)CC2)C1 [Example 387, Cyclobutylmethyl 4-{3-(cyanomethyl)-3-[4-(7H-pyrrolo[2,3-d]pyrimidin-4-yl)-1H-pyrazol-1-yl]azetidin-1-yl}piperidine-1-carboxylate]
10 to 50 | 12.9 | ≤ 5 | N#CCC1(n2cc(-c3c(F)cnc4[nH]ccc34)cn2)CN(C2CCN(C(=O)Nc3ccc(F)cc3C(F)(F)F)CC2)C1 [Example 328, 4-{3-(Cyanomethyl)-3-[4-(5-fluoro-1H-pyrrolo[2,3-b]pyridin-4-yl)-1H-pyrazol-1-yl]azetidin-1-yl}-N-[4-fluoro-2-(trifluoromethyl)phenyl]piperidine-1-carboxamide]
10 to 50 | 10.0 | ≤ 5 | N#CCC1(n2cc(-c3ncnc4[nH]ccc34)cn2)CN(C2CCN(C(=O)c3ccc(-c4ccncc4)c(F)c3)CC2)C1 [Example 117, {1-[1-(3-fluoro-4-pyridin-4-ylbenzoyl)piperidin-4-yl]-3-[4-(7H-pyrrolo[2,3-d]pyrimidin-4-yl)-1H-pyrazol-1-yl]azetidin-3-yl}acetonitrile]
≤ 10 | 6.7 | ≤ 5 | N#CCC1(n2cc(-c3ncnc4[nH]ccc34)cn2)CN(C2CCN(C(=O)c3ccc(F)cc3F)CC2)C1 [Example 42, {1-[1-(2,4-difluorobenzoyl)piperidin-4-yl]-3-[4-(7H-pyrrolo[2,3-d]pyrimidin-4-yl)-1H-pyrazol-1-yl]azetidin-3-yl}acetonitrile]
≤ 10 | 3.7 | ≤ 5 | N#CCC1(n2cc(-c3ncnc4[nH]ccc34)cn2)CN(C2CCN(C(=O)c3c(F)ccc(F)c3F)CC2)C1 [Example 47, {3-[4-(7H-pyrrolo[2,3-d]pyrimidin-4-yl)-1H-pyrazol-1-yl]-1-[1-(2,3,6-trifluorobenzoyl)piperidin-4-yl]azetidin-3-yl}acetonitrile]
> 100 | 20.8 | 5 to 20 | N#CCC1(n2ccc(-c3ncnc4[nH]ccc34)c2)CN(C2CCN(C(=O)c3ccnc(C(F)(F)F)c3F)CC2)C1 [Example 261, {1-{1-[3-Fluoro-2-(trifluoromethyl)isonicotinoyl]piperidin-4-yl}-3-[3-(7H-pyrrolo[2,3-d]pyrimidin-4-yl)-1H-pyrrol-1-yl]azetidin-3-yl}acetonitrile]
50 to 100 | 5.1 | 5 to 20 | COc1ccc(F)c(C(=O)N2CCC(N3CC(CC#N)(n4cc(-c5ncnc6[nH]ccc56)cn4)C3)CC2)c1 [Example 27, {1-[1-(2-fluoro-5-methoxybenzoyl)piperidin-4-yl]-3-[4-(7H-pyrrolo[2,3-d]pyrimidin-4-yl)-1H-pyrazol-1-yl]azetidin-3-yl}acetonitrile]

Structure (SMILES) | IC50 (Jak2 (a.a. 828-1132)) [nM] | IC50 Ratio JAK2/JAK1 [1] | IC50 [2] [nM]
N#CCC1(n2cc(-c3ncnc4[nH]ccc34)cn2)CN(C2CC3CCC(C2)N3C(=O)c2ccc(C(F)(F)F)nc2)C1 (stereo not drawn) [Example 143, [3-[4-(7H-pyrrolo[2,3-d]pyrimidin-4-yl)-1H-pyrazol-1-yl]-1-(8-{[6-(trifluoromethyl)pyridin-3-yl]carbonyl}-8-azabicyclo[3.2.1]oct-3-yl)azetidin-3-yl]acetonitrile] | 10 to 50 | 3.5 | 5 to 20
